Experimental data as given in patent US6806230B1, “Pyrimidine derivatives and herbicides containing them” (Kumiai Chemical Industry Co., Ltd., priority 1999, dated 2004).

What was measured:
Format in all cases: in vivo
monochoria (Mo) [1] = test: Test Example 1: herbicidal effects by flooded paddy field treatment; set-up: herbicidal effects, Mo (monochoria):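 0-5 growth inhibition grade; 5 = over 90%; 4 = 70-90%; 3 = 50-70%; 2 = 30-50%; 1 = 10-30%; 0 = under 10%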; settings: for Herbicidal effect index, Mo: dose 100 gai/10a, examined on 21st day after treatment, index 0-5 per Table 44; for herbicidal effects, Mo (monochoria): dose 100 g active ingredient per 10 ares, examined on the 21st day after treatment, standards of Table 44;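 as to Herbicidal effect index, Mo: 0-5 growth inhibition grade; 5 = over 90%; 4 = 70-90%; 3 = 50-70%; 2 = 30-50%; 1 = 10-30%; 0 = under 10%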
Outline: (§1)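 Dose: 100 g active ingredient per 10 ares as a diluted wettable powder dripped onto 3 cm floodwater, one day after sowing in puddled paddy soil. Scored by a standard rating scale 21 days later following greenhouse growth.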

barnyard grass (Ec) = test: Test Example 2: herbicidal effects by upland soil treatment; set-up: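 0-5 growth inhibition grade; 5 = over 90%; 4 = 70-90%; 3 = 50-70%; 2 = 30-50%; 1 = 10-30%; 0 = under 10%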; settings: dose 100 g active ingredient per 10 ares, examined on the 21st day after treatment, standards of Table 44
Outline: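 Pre-emergence test: barnyard grass and green foxtail sown in upland soil, then soil surface sprayed with wettable-powder formulation at 100 g active ingredient per 10 ares (100 l per 10 ares). Grown in greenhouse; herbicidal effect scored on a rating scale 21 days after treatment.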

monochoria (Mo) [2] = test: Test Example 4: selectivity for a crop plant by flooded paddy field treatment; set-up: scale not given here; settings: for Mo (herbicidal effects, index): dose 25 g active ingredient per 10 ares, examined on the 21st day after treatment; for Mo (herbicidal effect index): monochoria, dose 25 gai/10a, 21st day after treatment, index per Table 44
Outline: (§2)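 Water-surface application in a greenhouse pot test: 25 g active ingredient per 10 ares, given as a diluted wettable powder one day after flooding, with visual rating of herbicidal effect three weeks post-treatment.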

barnyard grass (Eo) [3] = test: as above; set-up: scale not given here; settings: for Eo (herbicidal effects, index): dose 25 g active ingredient per 10 ares, examined on the 21st day after treatment; for Eo (herbicidal effect index): barnyard grass, dose 25 gai/10a, 21st day after treatment, index per Table 44
Outline: as §2

rice (Or) = test: as above; set-up: scale not given here; settings: rice transplanted at second leaf stage; for Or (effect on crop plant rice, index): dose 25 g active ingredient per 10 ares, examined on the 21st day after treatment; for Or (herbicidal effect index on crop): dose 25 gai/10a, 21st day after treatment, index per Table 44
Outline: as §2

green foxtail (Se) = test: Test Example 2: herbicidal effects by upland soil treatment; settings: dose 100 g active ingredient per 10 ares, examined on the 21st day after treatment, standards of Table 44;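 also: 0-5 growth inhibition grade; 5 = over 90%; 4 = 70-90%; 3 = 50-70%; 2 = 30-50%; 1 = 10-30%; 0 = under 10%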
Procedure: In a 80 cm^2 plastic pot, upland soil was filled, and seeds of barnyard grass (Ec) and green foxtail (Se) were sown and covered with soil. A wettable powder prepared in accordance with Formulation Example 1 was diluted with water and uniformly applied to the soil surface by means of a small size spray at a rate of 100 l per 10 ares, so that the dose of the active ingredient would be 100 g per 10 ares. Thereafter, cultivation was carried out in a green house, and on the 21st day after the treatment, the herbicidal effects were examined in accordance with the standards as identified in Table 44.

barnyard grass (Eo) [4] = test: Test Example 1: herbicidal effects by flooded paddy field treatment; set-up: herbicidal effects, Eo (barnyard grass):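 0-5 growth inhibition grade; 5 = over 90%; 4 = 70-90%; 3 = 50-70%; 2 = 30-50%; 1 = 10-30%; 0 = under 10%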; settings: for Herbicidal effect index, Eo: dose 100 gai/10a, examined on 21st day after treatment, index 0-5 per Table 44; for herbicidal effects, Eo (barnyard grass): dose 100 g active ingredient per 10 ares, examined on the 21st day after treatment, standards of Table 44;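 as to Herbicidal effect index, Eo: 0-5 growth inhibition grade; 5 = over 90%; 4 = 70-90%; 3 = 50-70%; 2 = 30-50%; 1 = 10-30%; 0 = under 10%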
Outline: as §1

SMILES: CN(C(=O)Cc1ccc(F)cc1)C(c1ccccc1)c1cncnc1C(F)(F)F (racemic) [Compound 1-36]
- Herbicidal effect index, Mo (monochoria (Mo) [1]): 5
- herbicidal effects, Ec (barnyard grass) (barnyard grass (Ec)): 5
- Mo (herbicidal effects, index) (monochoria (Mo) [2]): 5
- Eo (herbicidal effects, index) (barnyard grass (Eo) [3]): 5
- Or (effect on crop plant rice, index) (rice (Or)): 1
- herbicidal effects, Se (green foxtail) (green foxtail (Se)): 5
- Herbicidal effect index, Eo (barnyard grass (Eo) [4]): 5

SMILES: CN(C(=O)Cc1ccc(Br)cc1)C(c1cncnc1C(F)(F)F)C1CCCC1 (racemic) [Compound 1-140]
- herbicidal effects, Mo (monochoria) (monochoria (Mo) [1]): 5
- herbicidal effects, Ec (barnyard grass) (barnyard grass (Ec)): 5
- Mo (herbicidal effect index) (monochoria (Mo) [2]): 5
- Eo (herbicidal effect index) (barnyard grass (Eo) [3]): 5
- Or (herbicidal effect index on crop) (rice (Or)): 0
- herbicidal effects, Se (green foxtail) (green foxtail (Se)): 5
- herbicidal effects, Eo (barnyard grass) (barnyard grass (Eo) [4]): 5

SMILES: CN(C(=O)Cc1ccccc1)C(c1cncnc1C(F)(F)Cl)C1CC1 (racemic) [Compound 1-91]
- Herbicidal effect index, Mo (monochoria (Mo) [1]): 5
- herbicidal effects, Ec (barnyard grass) (barnyard grass (Ec)): 4
- Mo (herbicidal effects, index) (monochoria (Mo) [2]): 5
- Eo (herbicidal effects, index) (barnyard grass (Eo) [3]): 5
- Or (effect on crop plant rice, index) (rice (Or)): 1
- herbicidal effects, Se (green foxtail) (green foxtail (Se)): 5
- Herbicidal effect index, Eo (barnyard grass (Eo) [4]): 5

SMILES: CC(C)C(c1cncnc1C(F)(F)F)N(C)C(=O)Cc1cccc([N+](=O)[O-])c1 (racemic) [Compound 1-74]
- Herbicidal effect index, Mo (monochoria (Mo) [1]): 5
- herbicidal effects, Ec (barnyard grass) (barnyard grass (Ec)): 5
- Mo (herbicidal effects, index) (monochoria (Mo) [2]): 5
- Eo (herbicidal effects, index) (barnyard grass (Eo) [3]): 5
- Or (effect on crop plant rice, index) (rice (Or)): 0
- herbicidal effects, Se (green foxtail) (green foxtail (Se)): 5
- Herbicidal effect index, Eo (barnyard grass (Eo) [4]): 5

SMILES: CC(Oc1ccc(Cl)cc1)C(=O)N(C)C(c1cncnc1C(F)(F)F)C(C)C (mixture of isomers) [Compound 1-116]
- Herbicidal effect index, Mo (monochoria (Mo) [1]): 5
- herbicidal effects, Ec (barnyard grass) (barnyard grass (Ec)): 5
- Mo (herbicidal effect index) (monochoria (Mo) [2]): 5
- Eo (herbicidal effect index) (barnyard grass (Eo) [3]): 5
- Or (herbicidal effect index on crop) (rice (Or)): 0
- herbicidal effects, Se (green foxtail) (green foxtail (Se)): 4
- Herbicidal effect index, Eo (barnyard grass (Eo) [4]): 5

SMILES: CN(C(=O)Cc1ccc(Cl)cc1)C(c1ccc(F)cc1)c1cncnc1C(F)(F)F (racemic) [1-219]
- herbicidal effects, Mo (monochoria) (monochoria (Mo) [1]): 5
- herbicidal effects, Ec (barnyard grass) (barnyard grass (Ec)): 5
- Mo (herbicidal effect index) (monochoria (Mo) [2]): 5
- Eo (herbicidal effect index) (barnyard grass (Eo) [3]): 5
- Or (herbicidal effect index on crop) (rice (Or)): 1
- herbicidal effects, Se (green foxtail) (green foxtail (Se)): 5
- herbicidal effects, Eo (barnyard grass) (barnyard grass (Eo) [4]): 5

SMILES: CC(C)C(c1cncnc1C(F)(F)F)N(C)C(=O)Cc1c(F)cccc1F (racemic) [Compound 1-123]
- Herbicidal effect index, Mo (monochoria (Mo) [1]): 5
- herbicidal effects, Ec (barnyard grass) (barnyard grass (Ec)): 5
- Mo (herbicidal effect index) (monochoria (Mo) [2]): 5
- Eo (herbicidal effect index) (barnyard grass (Eo) [3]): 5
- Or (herbicidal effect index on crop) (rice (Or)): 1
- herbicidal effects, Se (green foxtail) (green foxtail (Se)): 5
- Herbicidal effect index, Eo (barnyard grass (Eo) [4]): 5

SMILES: CC(C)C(c1cncnc1C(F)(F)F)N(C)C(=O)OCc1ccccc1 (racemic) [Compound 1-118]
- Herbicidal effect index, Mo (monochoria (Mo) [1]): 5
- herbicidal effects, Ec (barnyard grass) (barnyard grass (Ec)): 5
- Mo (herbicidal effect index) (monochoria (Mo) [2]): 3
- Eo (herbicidal effect index) (barnyard grass (Eo) [3]): 5
- Or (herbicidal effect index on crop) (rice (Or)): 0
- herbicidal effects, Se (green foxtail) (green foxtail (Se)): 5
- Herbicidal effect index, Eo (barnyard grass (Eo) [4]): 5

SMILES: CCCN(C(=O)Cc1ccc(F)cc1)C(c1cncnc1C(F)(F)F)C(C)C (racemic) [1-181]
- herbicidal effects, Mo (monochoria) (monochoria (Mo) [1]): 5
- herbicidal effects, Ec (barnyard grass) (barnyard grass (Ec)): 5
- Mo (herbicidal effect index) (monochoria (Mo) [2]): 5
- Eo (herbicidal effect index) (barnyard grass (Eo) [3]): 5
- Or (herbicidal effect index on crop) (rice (Or)): 1
- herbicidal effects, Se (green foxtail) (green foxtail (Se)): 5
- herbicidal effects, Eo (barnyard grass) (barnyard grass (Eo) [4]): 5

SMILES: Cc1ccc(CC(=O)N(C)C(c2cncnc2C(F)(F)F)C(C)C)cc1C (racemic) [Compound 1-72]
- Herbicidal effect index, Mo (monochoria (Mo) [1]): 5
- herbicidal effects, Ec (barnyard grass) (barnyard grass (Ec)): 5
- Mo (herbicidal effects, index) (monochoria (Mo) [2]): 5
- Eo (herbicidal effects, index) (barnyard grass (Eo) [3]): 5
- Or (effect on crop plant rice, index) (rice (Or)): 0
- herbicidal effects, Se (green foxtail) (green foxtail (Se)): 4
- Herbicidal effect index, Eo (barnyard grass (Eo) [4]): 5

SMILES: COCN(C(=O)Cc1ccc(C)cc1)C(c1cncnc1C(F)(F)F)C(C)C (racemic) [Compound 1-106]
- Herbicidal effect index, Mo (monochoria (Mo) [1]): 5
- herbicidal effects, Ec (barnyard grass) (barnyard grass (Ec)): 5
- Mo (herbicidal effect index) (monochoria (Mo) [2]): 5
- Eo (herbicidal effect index) (barnyard grass (Eo) [3]): 5
- Or (herbicidal effect index on crop) (rice (Or)): 0
- herbicidal effects, Se (green foxtail) (green foxtail (Se)): 4
- Herbicidal effect index, Eo (barnyard grass (Eo) [4]): 5

SMILES: Cc1ccc(C(c2cncnc2C(F)(F)F)N(C)C(=O)Cc2ccccc2)cc1 (racemic) [1-225]
- herbicidal effects, Mo (monochoria) (monochoria (Mo) [1]): 5
- herbicidal effects, Ec (barnyard grass) (barnyard grass (Ec)): 5
- Mo (herbicidal effect index) (monochoria (Mo) [2]): 5
- Eo (herbicidal effect index) (barnyard grass (Eo) [3]): 5
- Or (herbicidal effect index on crop) (rice (Or)): 0
- herbicidal effects, Se (green foxtail) (green foxtail (Se)): 5
- herbicidal effects, Eo (barnyard grass) (barnyard grass (Eo) [4]): 5

SMILES: CN(C(=O)Cc1ccccc1)C(c1ccc(F)cc1)c1cncnc1C(F)(F)F (racemic) [1-217]
- herbicidal effects, Mo (monochoria) (monochoria (Mo) [1]): 5
- herbicidal effects, Ec (barnyard grass) (barnyard grass (Ec)): 5
- Mo (herbicidal effect index) (monochoria (Mo) [2]): 5
- Eo (herbicidal effect index) (barnyard grass (Eo) [3]): 5
- Or (herbicidal effect index on crop) (rice (Or)): 1
- herbicidal effects, Se (green foxtail) (green foxtail (Se)): 5
- herbicidal effects, Eo (barnyard grass) (barnyard grass (Eo) [4]): 5

SMILES: CSc1ncncc1C(C(C)C)N(C)C(=O)Cc1ccccc1 (racemic) [Compound 1-150]
- herbicidal effects, Mo (monochoria) (monochoria (Mo) [1]): 5
- herbicidal effects, Ec (barnyard grass) (barnyard grass (Ec)): 5
- Mo (herbicidal effect index) (monochoria (Mo) [2]): 5
- Eo (herbicidal effect index) (barnyard grass (Eo) [3]): 5
- Or (herbicidal effect index on crop) (rice (Or)): 1
- herbicidal effects, Se (green foxtail) (green foxtail (Se)): 5
- herbicidal effects, Eo (barnyard grass) (barnyard grass (Eo) [4]): 5

SMILES: CC(C)c1ncncc1C(C(C)C)N(C)C(=O)Cc1ccc(Cl)cc1 (racemic) [Compound 1-130]
- herbicidal effects, Mo (monochoria) (monochoria (Mo) [1]): 5
- herbicidal effects, Ec (barnyard grass) (barnyard grass (Ec)): 5
- Mo (herbicidal effect index) (monochoria (Mo) [2]): 5
- Eo (herbicidal effect index) (barnyard grass (Eo) [3]): 5
- Or (herbicidal effect index on crop) (rice (Or)): 1
- herbicidal effects, Se (green foxtail) (green foxtail (Se)): 5
- herbicidal effects, Eo (barnyard grass) (barnyard grass (Eo) [4]): 5

SMILES: Cc1ccc(CC(=S)N(C)C(c2cncnc2C(F)(F)F)C(C)C)cc1 (racemic) [Compound 1-145]
- herbicidal effects, Mo (monochoria) (monochoria (Mo) [1]): 5
- herbicidal effects, Ec (barnyard grass) (barnyard grass (Ec)): 5
- Mo (herbicidal effect index) (monochoria (Mo) [2]): 5
- Eo (herbicidal effect index) (barnyard grass (Eo) [3]): 5
- Or (herbicidal effect index on crop) (rice (Or)): 1
- herbicidal effects, Se (green foxtail) (green foxtail (Se)): 5
- herbicidal effects, Eo (barnyard grass) (barnyard grass (Eo) [4]): 5

SMILES: CC(C)C(c1cncnc1C(F)(F)F)N(C)C(=O)Cc1ccc([N+](=O)[O-])cc1 (racemic) [Compound 1-52]
- Herbicidal effect index, Mo (monochoria (Mo) [1]): 5
- herbicidal effects, Ec (barnyard grass) (barnyard grass (Ec)): 5
- Mo (herbicidal effects, index) (monochoria (Mo) [2]): 5
- Eo (herbicidal effects, index) (barnyard grass (Eo) [3]): 5
- Or (effect on crop plant rice, index) (rice (Or)): 1
- herbicidal effects, Se (green foxtail) (green foxtail (Se)): 5
- Herbicidal effect index, Eo (barnyard grass (Eo) [4]): 5

SMILES: CC(C)C(c1cncnc1C(F)(F)F)N(C)C(=O)Cc1ccc2c(c1)OCO2 (racemic) [Compound 1-146]
- herbicidal effects, Mo (monochoria) (monochoria (Mo) [1]): 5
- herbicidal effects, Ec (barnyard grass) (barnyard grass (Ec)): 4
- Mo (herbicidal effect index) (monochoria (Mo) [2]): 5
- Eo (herbicidal effect index) (barnyard grass (Eo) [3]): 5
- Or (herbicidal effect index on crop) (rice (Or)): 1
- herbicidal effects, Se (green foxtail) (green foxtail (Se)): 4
- herbicidal effects, Eo (barnyard grass) (barnyard grass (Eo) [4]): 5

SMILES: CN(C(=O)Cc1ccc(Cl)cc1)C(c1cccs1)c1cncnc1C(F)(F)F (racemic) [1-200]
- herbicidal effects, Mo (monochoria) (monochoria (Mo) [1]): 5
- herbicidal effects, Ec (barnyard grass) (barnyard grass (Ec)): 5
- Mo (herbicidal effect index) (monochoria (Mo) [2]): 5
- Eo (herbicidal effect index) (barnyard grass (Eo) [3]): 5
- Or (herbicidal effect index on crop) (rice (Or)): 1
- herbicidal effects, Se (green foxtail) (green foxtail (Se)): 5
- herbicidal effects, Eo (barnyard grass) (barnyard grass (Eo) [4]): 5
